Structures can show the parent of a compound that is named as a salt.

The melting point is the temperature of the solid-liquid transition.

Regarding `CC(=O)NCC1(C)NCCc2c1oc1cc(S(=O)(=O)c3cccc(F)c3)ccc21` (stereo not shown) (as salt: HCl) [Example 632, N-({7-[(3-fluorophenyl)sulfonyl]-1-methyl-1,2,3,4-tetrahydro[1]benzofuro[2,3-c]pyridin-1-yl}methyl)acetamide], the melting point fell in the range of 210 to 260 °C. For `CCC1(C)NCCc2c1oc1cc(S(=O)(=O)c3cccc(F)c3)ccc21` (racemic) (as salt: HCl) [Example 27, 1-ethyl-7-[(3-fluorophenyl)sulfonyl]-1-methyl-1,2,3,4-tetrahydro[1]benzofuro[2,3-c]pyridine], the melting point was > 300 °C. Turning to `CC12CCNCC1Oc1cc(S(=O)(=O)c3cccc(F)c3F)ccc12` (stereo not shown) (as salt: HCl) [Example 488], the melting point lay within 202 to 204 °C. For `O=S(=O)(c1cccc(F)c1)c1ccc2c3c(oc2c1)C(CF)(CF)NCC3` [Example 35, 1,1-bis(fluoromethyl)-7-[(3-fluorophenyl)sulfonyl]-1,2,3,4-tetrahydro[1]benzofuro[2,3-c]pyridine], the melting point lay in the range of 154 to 157 °C. Regarding `N#CCCCCOc1cccc(S(=O)(=O)c2ccc3c(c2)OC2CNCCC32)c1` (stereo not shown) (as salt: HCl) [Example 574], the melting point lay in the range of 189 to 190 °C. Consider `CC12CCNCC1Oc1ccc(S(=O)(=O)c3ccncc3)cc12` (racemic) (as salt: HCl) [Example 13, 4a-methyl-6-(pyridin-4-ylsulfonyl)-1,2,3,4,4a,9a-hexahydro[1]benzofuro[2,3-c]pyridine], for which the melting point fell in the range of 186 to 188 °C. For the compound `Cc1nc(COc2cccc(S(=O)(=O)c3ccc4c(c3)OC3CNCCC43)c2)cs1` (stereo not shown) (as salt: HCl) [Example 569], the melting point fell in the range of 205 to 208 °C. As to `Cc1c(OCC2CCOCC2)cccc1S(=O)(=O)c1ccc2c(c1)OC1CNCCC21` (stereo not shown) (as salt: HCl) [Example 582], the melting point is 201 to 202 °C. Compound `COCCCOc1cc(OC(C)C)cc(S(=O)(=O)c2ccc3c(c2)OC2CNCCC32)c1` (stereo not shown) (as salt: HCl) [Example 588] gave a melting point of 164 to 166 °C.

Regarding `NC(=O)COc1cccc(S(=O)(=O)c2ccc3c(c2)OC2CNCCC32)c1` (stereo not shown) (as salt: HCl) [Example 563], the melting point lay in the range of 237 to 239 °C. `COc1cc(OCC2CC2)cc(S(=O)(=O)c2ccc3c(c2)OC2CNCCC32)c1` (stereo not shown) (as salt: HCl) [Example 585] showed a melting point of 224 to 225 °C. The compound `O=S(=O)(c1cccc(Oc2cnccn2)c1)c1ccc2c(c1)OC1CNCCC21` (stereo not shown) (as salt: HCl) [Example 580] had a melting point of 234 to 236 °C.

`Cc1cccc(S(=O)(=O)c2ccc3c4c(oc3c2)C(C)(C)NCC4)n1` (as salt: HCl) [Example 19, 1,1-dimethyl-7-[(6-methylpyridin-2-yl)sulfonyl]-1,2,3,4-tetrahydro[1]benzofuro[2,3-c]pyridine] returned a melting point of 305 to 310 °C. `O=S(=O)(c1cccc(OCCCO)c1)c1ccc2c(c1)OC1CNCCC21` (stereo not shown) (as salt: HCl) [Example 568]: the melting point lay in the range of 206 to 209 °C. Compound `O=S(=O)(c1cccc(OCC(F)F)c1)c1ccc2c(c1)OC1CNCCC21` (stereo not shown) (as salt: HCl) [Example 578] returned a melting point of 263 to 266 °C. `Cc1cc(COc2cccc(S(=O)(=O)c3ccc4c(c3)OC3CNCCC43)c2)no1` (stereo not shown) (as salt: HCl) [Example 565] yielded a melting point of 215 to 217 °C.

Regarding `CC(C)Oc1cccc(S(=O)(=O)c2ccc3c(c2)OC2CNCCC32C)c1` (single isomer, unassigned) (as salt: HCl) [Example 20, 4a-methyl-7-{[3-(propan-2-yloxy)phenyl]sulfonyl}-1,2,3,4,4a,9a-hexahydro[1]benzofuro[2,3-c]pyridine], the melting point was 184 to 185 °C. Compound `COc1cc(OCC2CCOCC2)cc(S(=O)(=O)c2ccc3c(c2)OC2CNCCC32)c1` (stereo not shown) (as salt: HCl) [Example 584] displayed a melting point of 207 to 208 °C.

As for `CC1(C)CNC2(CCOCC2)c2oc3cc(S(=O)(=O)c4cccc(F)c4)ccc3c21` (as salt: HCl) [Example 2, 7-[(3-fluorophenyl)sulfonyl]-4,4-dimethyl-2′,3,3′,4,5′,6′-hexahydro-2H-spiro[1-benzofuro[2,3-c]pyridine-1,4′-pyran]], the melting point was 286 to 288 °C.

On to `COc1cccc(S(=O)(=O)c2ccc3c4c(oc3c2)C(C)(C)NCC4)c1` (as salt: HCl) [Example 16, 7-[(3-methoxyphenyl)sulfonyl]-1,1-dimethyl-1,2,3,4-tetrahydro[1]benzofuro[2,3-c]pyridine], for which the melting point was 335 °C (dec.). In the case of `O=S1(=O)CCC2(CC1)NCCc1c2oc2cc(S(=O)(=O)c3cccc(F)c3)ccc12` (as salt: HCl) [Example 38, 7-[(3-fluorophenyl)sulfonyl]-2′,3,3′,4,5′,6′-hexahydro-2H-spiro[1-benzofuro[2,3-c]pyridine-1,4′-thiopyran] 1′,1′-dioxide], the melting point was 298 to 300 °C (dec.). `COc1cc(OC)cc(S(=O)(=O)c2ccc3c(c2)OC2CNCCC32C)c1` (stereo not shown) (as salt: HCl) [Example 487] gave a melting point of 283 to 285 °C. Regarding `CCCOc1cccc(S(=O)(=O)c2ccc3c(c2)OC2CNCCC32)c1` (stereo not shown) (as salt: HCl) [Example 572], the melting point lay in the range of 210 to 213 °C. In turn, `O=S(=O)(c1cccc(OC2CCOCC2)c1)c1ccc2c(c1)OC1CNCCC21` (stereo not shown) (as salt: HCl) [Example 571] came in with a melting point of 184 to 186 °C. In the case of `CC1OCCC12NCCc1c2oc2cc(S(=O)(=O)c3cccc(F)c3)ccc12` (single isomer, unassigned) (as salt: HCl) [Example 60, 7-[(3-Fluorophenyl)sulfonyl]-2′-methyl-3,4,4′,5′-tetrahydro-2H-spiro[1-benzofuro[2,3-c]pyridine-1,3′-furan]], the melting point was 298 to 301 °C (dec.). Regarding `CC(C)Oc1cccc(S(=O)(=O)c2ccc3c4c(oc3c2)C(C)(C(F)F)NCC4)c1` (single isomer, unassigned) (as salt: HCl) [Example 34, 1-(difluoromethyl)-1-methyl-7-{[3-(propan-2-yloxy)phenyl]sulfonyl}-1,2,3,4-tetrahydro[1]benzofuro[2,3-c]pyridine], the melting point was 219 to 222 °C.

Turning to `C#CCOc1cccc(S(=O)(=O)c2ccc3c(c2)OC2CNCCC32)c1` (stereo not shown) (as salt: HCl) [Example 549], the melting point lay in the range of 174 to 175 °C. In turn, `COc1cc(OC)cc(S(=O)(=O)c2ccc3c(c2)OC2CNCCC32C)c1` (stereo not shown) (as salt: HCl) [Example 490] had a melting point of 250 to 252 °C. `COc1ccc(S(=O)(=O)c2ccc3c(c2)OC2CNCCC32C)cc1` (racemic) (as salt: HCl) [Example 5, 7-[(4-methoxyphenyl)sulfonyl]-4a-methyl-1,2,3,4,4a,9a-hexahydro[1]benzofuro[2,3-c]pyridine] registered a melting point of 283 to 284 °C. In the case of `N#Cc1cccc(COc2cccc(S(=O)(=O)c3ccc4c(c3)OC3CNCCC43)c2)c1` (stereo not shown) (as salt: HCl) [Example 552], the melting point was in the range of 200 to 201 °C. As for `CN(C)C(=O)c1cccc(S(=O)(=O)c2ccc3c4c(oc3c2)CNCC4)c1` (as salt: hydrochloride) [Example 474, N,N-Dimethyl-3-(1,2,3,4-tetrahydro[1]benzofuro[2,3-c]pyridin-7-ylsulfonyl)benzamide hydrochloride], the melting point is 262 to 265 °C.

`CC12CCNCC1Oc1ccc(S(=O)(=O)c3cc[n+]([O-])cc3)cc12` (racemic) (as salt: HCl) [Example 14, 4a-methyl-6-[(1-oxidopyridin-4-yl)sulfonyl]-1,2,3,4,4a,9a-hexahydro[1]benzofuro[2,3-c]pyridine] registered a melting point of 207 to 210 °C. Regarding `CC1(C)CNC2(CCOCC2)c2oc3cc([S+]([O-])c4cccc(F)c4)ccc3c21` (racemic) (as salt: HCl) [Example 47, 7-[(3-fluorophenyl)sulfinyl]-4,4-dimethyl-2′,3,3′,4,5′,6′-hexahydro-2H-spiro[1-benzofuro[2,3-c]pyridine-1,4′-pyran]], the melting point was in the range of 248 to 253 °C. For `CC(C)Oc1cccc(S(=O)(=O)c2ccc3c(c2)OC2CNCCC32C)c1` (racemic) (as salt: HCl) [Example 12, 4a-methyl-7-{[3-(propan-2-yloxy)phenyl]sulfonyl}-1,2,3,4,4a,9a-hexahydro[1]benzofuro[2,3-c]pyridine] the value was 206 to 208 °C.

With `COc1c(F)cc(F)cc1S(=O)(=O)c1ccc2c(c1)OC1CNCCC21C` (stereo not shown) (as salt: HCl) [Example 486], the melting point was in the range of 259 to 261 °C. For `CC(C)Oc1cccc(S(=O)(=O)c2ccc3c(c2)OC2CNCCC32C)c1` (single isomer, unassigned) (as salt: HCl) [Example 21, 4a-methyl-7-{[3-(propan-2-yloxy)phenyl]sulfonyl}-1,2,3,4,4a,9a-hexahydro[1]benzofuro[2,3-c]pyridine] the value was 183 to 184 °C; for `O=S(=O)(c1cccc(OCC2CCCCO2)c1)c1ccc2c(c1)OC1CNCCC21` (stereo not shown) (as salt: HCl) [Example 553], 192 to 194 °C; for `CC12CCNCC1Oc1cc(S(=O)(=O)c3cccc(F)c3)ccc12` (racemic) (as salt: HCl) [Example 11, 7-[(3-fluorophenyl)sulfonyl]-4a-methyl-1,2,3,4,4a,9a-hexahydro[1]benzofuro[2,3-c]pyridine], 288 to 290 °C. For `CC(C)Oc1cccc(S(=O)(=O)c2ccc3c4c(oc3c2)C2(CCOC2)NCC4)c1` (single isomer, unassigned) (as salt: HCl) [Example 32, 7-{[3-(propan-2-yloxy)phenyl]sulfonyl}-3,4,4′,5′-tetrahydro-2H-spiro[1-benzofuro[2,3-c]pyridine-1,3′-furan]] the value was 259 to 261 °C (dec.); for `Cc1ccnc(S(=O)(=O)c2ccc3c(c2)OC2CNCCC32C)n1` (racemic) (as salt: HCl) [Example 7, 4a-methyl-7-[(4-methylpyrimidin-2-yl)sulfonyl]-1,2,3,4,4a,9a-hexahydro[1]benzofuro[2,3-c]pyridine], 199 to 201 °C.

The values above are taken from patent US8765779B2, “Tricyclic derivatives and their pharmaceutical use and compositions” (Cephalon, Inc., priority 2009, dated 2014).
